According to paper PMC11836371, “Virtual fragment screening for DNA repair inhibitors in vast chemical space” (Nature Communications, 2025):
Several values for one entry are separate records, joined by “and”; a condition that tells them apart may be missing. Equal entries are not always repeated. Where two headings read alike, the source gives them in different places.

Legend:
human OGG1 enzyme [1] = target: T1, human OGG1 enzyme (Homo sapiens, UniProt O15527); experiment: OGG1 glycosylase activity assay (enzyme inhibition, APE1-coupled fluorescence); assay type: biochemical; conditions: read-out: IC50
T1 sequence (O15527 whole entry): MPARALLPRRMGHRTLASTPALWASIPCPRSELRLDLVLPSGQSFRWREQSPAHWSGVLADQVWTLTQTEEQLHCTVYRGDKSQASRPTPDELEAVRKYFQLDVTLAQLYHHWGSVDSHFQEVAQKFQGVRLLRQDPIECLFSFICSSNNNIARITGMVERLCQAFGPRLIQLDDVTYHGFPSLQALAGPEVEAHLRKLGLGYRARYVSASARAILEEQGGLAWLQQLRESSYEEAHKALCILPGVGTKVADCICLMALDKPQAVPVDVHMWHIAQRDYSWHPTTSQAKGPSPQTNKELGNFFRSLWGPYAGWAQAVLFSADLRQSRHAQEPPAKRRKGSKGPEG
Procedure: “8” signifies 8-oxoA and “FAM” and “Dab” signify fluorescein and dabcyl (TriLink Biotech). Briefly, compounds dissolved in DMSO were dispensed using an Echo 550 (Labcyte), followed by transfer of enzyme and substrate solutions manually with a 16-channel pipette or with a Multidrop (Thermo Scientific). The plates were centrifuged, sealed and incubated at room temperature overnight (15 h) and read the following morning in an Hidex Sense plate reader (Hidex Oy) using a 485-nm filter with a bandwidth of 10 nm for excitation and a 535-nm filter with a bandwidth of 20 nm for emission.

A2780 cells = experiment: Cancer cell viability assay (resazurin), A2780; assay type: cell-based; design: key to cell viability, cytotoxicity curve (Figure3H): % viability relative to untreated control wells
Procedure: (§1) Three different cancer cell lines A2780 (ovarian cancer, ECACC 93112519), A549 (lung cancer, ATCC 60150896) and HCT116 (colon cancer, ATCC CCL-247), and one immortalized fibroblast cell line (BJhTERT) as control, were seeded in black/clear 384-well plates (Corning #3764), 50 µL/well, containing 11 concentrations, nano-dispensed, dose-response curves of the test compounds. A2780, HCT116, and HEK293T cell lines were authenticated with STR profiling, frozen down, and these stocks were used in experiments. The A2780 cells were cultured in RPMI 1640, the A549 and BJhTERT cells in DMEM, and the HCT116 cells in McCoys 5 A medium. All media were supplemented with 10% FBS and 1% P/S. All cell culture media, additives, and reagents were purchased from Thermo Fisher Scientific. The cell plates were incubated 72 hours in a humidified incubator at 37 °C with 5% CO2, after which resazurin (Sigma-Aldrich), 10 µL/well, was added to a final concentration of 10 µg/mL. The plates were incubated for 6 hours with resazurin followed by fluorescence readings in a Sense plate reader (Hidex), resorufin protocol (ex 544 nm/em 595 nm). The cell viability was calculated compared to untreated control wells and the EC50 values were determined in XLfit (IDBS).

BJhTERT cells = experiment: Cell viability assay (resazurin), BJhTERT non-transformed control; assay type: cell-based; design: key to cell viability, cytotoxicity curve (Figure3H): % viability relative to untreated control wells
Procedure: (§2) A2780, HCT116, and HEK293T cell lines were authenticated with STR profiling, frozen down, and these stocks were used in experiments. […] All media were supplemented with 10% FBS and 1% P/S. All cell culture media, additives, and reagents were purchased from Thermo Fisher Scientific. The cell plates were incubated 72 hours in a humidified incubator at 37 °C with 5% CO2, after which resazurin (Sigma-Aldrich), 10 µL/well, was added to a final concentration of 10 µg/mL. […] The cell viability was calculated compared to untreated control wells and the EC50 values were determined in XLfit (IDBS).

[2] = as above; assay type: cell-based; design: key to cell viability, cytotoxicity curve (Figure3H): % viability relative to untreated control wells; conditions: human, BJhTERT; for viability at 72 h, 5.12861e-09 M: Log conc. (M) 5.12861e-9; for viability at 72 h, 1.51356e-08 M: Log conc. (M) 1.51356e-8; for viability at 72 h, 4.57088e-08 M: Log conc. (M) 4.57088e-8; for viability at 72 h, 1.38038e-07 M: Log conc. (M) 1.38038e-7; for viability at 72 h, 4.0738e-07 M: Log conc. (M) 4.0738e-7; for viability at 72 h, 1.23027e-06 M: Log conc. (M) 1.23027e-6; for viability at 72 h, 3.31131e-05 M: Log conc. (M) 3.31131e-5; for viability at 72 h, 0.0001 M: Log conc. (M) 0.0001
Procedure: as §2

human OGG1 enzyme [3] = target: T1, human OGG1 enzyme; experiment: Differential scanning fluorimetry (DSF) thermal shift assay; assay type: binding; design: ∆Tm (K): unit of the concentration uncertain
Procedure: The temperature was increased from 20 °C to 85 °C with 10 readings/degree. Tm values were calculated using an excel template and fitting to the Boltzmann equation in Prism v.6.07 (GraphPad Software).

[4] = Plasma protein binding in human plasma (RED); assay type: in vitro ADME; conditions: plasma (50% plasma, 50% isotonic buffer), pH 7.4, read-out: Protein plasma binding, fu (%)
Procedure: Pooled human plasma was provided by Uppsala Academic Hospital and was collected from two donors (non-smoking) (citric acid). In brief, 0.2 mL of the plasma (50% plasma, 50% isotonic buffer) test solution (typically 10 µM final compound concentration) was transferred to the membrane tube in the RED insert (ThermoFisher Scientific). 0.35 ml isotonic phosphate buffer pH 7.4 was added to the other side of the membrane. The 96-well base plate was then sealed with an adhesive plastic film (Scotch Pad) to prevent evaporation. The sample was incubated with rapid rotation (>>900 rpm) on a Kisker rotational incubator at 37 °C for 4 h to achieve equilibrium. Prior to LC-MS/MS analysis the plasma and buffer samples were treated with the addition of Methanol (1:3) containing Warfarin as an internal standard to precipitate proteins. The standard curve was created using the plasma standard. The plate was then sealed, and centrifuged and the supernatant was analyzed by liquid chromatography coupled to triple quadrupole mass spectrometry (LC-MS/MS).

A549 cells = experiment: Cancer cell viability assay (resazurin), A549; assay type: cell-based; conditions: two independent experiments
Procedure: as §1

HCT116 cells = experiment: Cancer cell viability assay (resazurin), HCT116; assay type: cell-based; conditions: two independent experiments
Procedure: as §1

[5] = A2780, Log conc. (M) 1.69824e-9
[6] = A2780, Log conc. (M) 5.12861e-9
[7] = A2780, Log conc. (M) 1.51356e-8
[8] = A2780, Log conc. (M) 4.57088e-8
[9] = A2780, Log conc. (M) 1.38038e-7
[10] = A2780, Log conc. (M) 1.23027e-6
[11] = A2780, Log conc. (M) 3.71535e-6
[12] = A2780, Log conc. (M) 1.12202e-5
[13] = A2780, Log conc. (M) 3.31131e-5
[14] = BJhTERT, Log conc. (M) 1.69824e-9
[15] = BJhTERT, Log conc. (M) 5.12861e-9
[16] = BJhTERT, Log conc. (M) 1.51356e-8
[17] = BJhTERT, Log conc. (M) 4.57088e-8
[18] = BJhTERT, Log conc. (M) 1.38038e-7
[19] = BJhTERT, Log conc. (M) 4.0738e-7
[20] = BJhTERT, Log conc. (M) 1.23027e-6
[21] = BJhTERT, Log conc. (M) 3.71535e-6
[22] = BJhTERT, Log conc. (M) 1.12202e-5
[23] = BJhTERT, Log conc. (M) 3.31131e-5
[24] = BJhTERT immortalized fibroblast cells, read-out: cell viability, cytotoxicity curve (Figure3H)
[25] = read-out: cell viability, cytotoxicity curve (Figure3H)

## O=C(Nc1ccc(I)cc1)N1CCC(n2c(=O)[nH]c3c(Br)cccc32)CC1 [TH5487, reference compound]
Human OGG1 enzyme [1]
  IC50: 0.34 µM
A2780 cells; [5]
  cell viability, cytotoxicity curve (Figure3H): 121.27 and 94.15
A2780 cells; [6]
  cell viability, cytotoxicity curve (Figure3H): 114.3 and 105.95
A2780 cells; [7]
  cell viability, cytotoxicity curve (Figure3H): 105.54 and 93.28
A2780 cells; [8]
  cell viability, cytotoxicity curve (Figure3H): 111.22 and 83.28
A2780 cells; [9]
  cell viability, cytotoxicity curve (Figure3H): 102.55 and 80.89
A2780 cells; A2780, Log conc. (M) 4.0738e-7
  cell viability, cytotoxicity curve (Figure3H): 93.7 and 80.77
A2780 cells; [10]
  cell viability, cytotoxicity curve (Figure3H): 109.2 and 106.39
A2780 cells; [11]
  cell viability, cytotoxicity curve (Figure3H): 104.11 and 96.04
A2780 cells; [12]
  cell viability, cytotoxicity curve (Figure3H): 67.93 and 61.64
A2780 cells; [13]
  cell viability, cytotoxicity curve (Figure3H): 4.85 and 2.91
A2780 cells; A2780, Log conc. (M) 0.0001
  cell viability, cytotoxicity curve (Figure3H): 1.49 and 1.08
BJhTERT cells; [14]
  cell viability, cytotoxicity curve (Figure3H): 92.09
BJhTERT cells; [15]
  cell viability, cytotoxicity curve (Figure3H): 85.03
BJhTERT cells; [16]
  cell viability, cytotoxicity curve (Figure3H): 85.22
BJhTERT cells; [17]
  cell viability, cytotoxicity curve (Figure3H): 94.5
BJhTERT cells; [18]
  cell viability, cytotoxicity curve (Figure3H): 96.92
BJhTERT cells; [19]
  cell viability, cytotoxicity curve (Figure3H): 95.59
BJhTERT cells; [20]
  cell viability, cytotoxicity curve (Figure3H): 90.96
BJhTERT cells; [21]
  cell viability, cytotoxicity curve (Figure3H): 95.28 and 121.4
BJhTERT cells; [22]
  cell viability, cytotoxicity curve (Figure3H): 71.74 and 94.42
BJhTERT cells; [23]
  cell viability, cytotoxicity curve (Figure3H): 58.03
BJhTERT cells; BJhTERT, Log conc. (M) 0.0001
  cell viability, cytotoxicity curve (Figure3H): 5.96
[2]; BJhTERT immortalized fibroblast cells, Log conc. (M) 1.69824e-9, read-out: cell viability, cytotoxicity curve (Figure3H)
  viability at 72 h, 1.69824e-09 M: 74.4%
[2]; [24]
  viability at 72 h, 5.12861e-09 M: 72.6%
  viability at 72 h, 1.51356e-08 M: 78%
  viability at 72 h, 4.57088e-08 M: 84%
  viability at 72 h, 1.38038e-07 M: 81.8%
  viability at 72 h, 4.0738e-07 M: 80.5%
  viability at 72 h, 1.23027e-06 M: 81.8%
  viability at 72 h, 3.31131e-05 M: 47%
  viability at 72 h, 0.0001 M: 5.37%
Human OGG1 enzyme [3]; 495 µM
  ∆Tm (K): 4.3 K
Human OGG1 enzyme [3]; 495 (unit uncertain) as printed in sheet footnote
  ∆Tm (K): 4.3 K
Human OGG1 enzyme [3]; concentration not given
  ΔTm: 4.3 K
[4]
  fraction unbound at 4 h, 10 µM: 0.001

## Nc1nn(-c2ccc(CC(=O)Nc3noc4c3CCCC4)cc2)c2ccccc12 [compound 11]
A549 cells; A549, 100 μM, 100 µM
  percentage cell viability: 21.3%
A549 cells; Homo sapiens, A549, A549, 100 μM, read-out: percentage cell viability
  viability at 100 µM: 17.2%
A2780 cells; A2780, 100 μM, two independent experiments, 100 µM
  percentage cell viability: 1.69%
A2780 cells; [5]
  cell viability, cytotoxicity curve (Figure3H): 91.8 and 117.36
A2780 cells; [6]
  cell viability, cytotoxicity curve (Figure3H): 99.13 and 112.7
A2780 cells; [7]
  cell viability, cytotoxicity curve (Figure3H): 105.26 and 125.33
A2780 cells; [8]
  cell viability, cytotoxicity curve (Figure3H): 93.79 and 108.52
A2780 cells; [9]
  cell viability, cytotoxicity curve (Figure3H): 82.27 and 122.21
A2780 cells; A2780, Log conc. (M) 4.0738e-7
  cell viability, cytotoxicity curve (Figure3H): 73.45 and 78.71
A2780 cells; [10]
  cell viability, cytotoxicity curve (Figure3H): 82.77 and 87.65
A2780 cells; [11]
  cell viability, cytotoxicity curve (Figure3H): 59.52 and 70.03
A2780 cells; [12]
  cell viability, cytotoxicity curve (Figure3H): 22.19 and 22.95
A2780 cells; [13]
  cell viability, cytotoxicity curve (Figure3H): 6.15 and 7.44
A2780 cells; A2780, Log conc. (M) 0.0001
  cell viability, cytotoxicity curve (Figure3H): 1.69
A2780 cells; Homo sapiens, A2780, A2780, 100 μM, two independent experiments, read-out: percentage cell viability
  viability at 100 µM: 1.43%
A2780 cells; Homo sapiens, A2780 cancer cells, 72 h, read-out: EC50 (loss of viability)
  EC50: 5.4 µM
BJhTERT cells; BJhTERT, 100 μM, two independent experiments
  percentage cell viability: 40.28%
BJhTERT cells; [14]
  cell viability, cytotoxicity curve (Figure3H): 80.73 and 114.45
BJhTERT cells; [15]
  cell viability, cytotoxicity curve (Figure3H): 111.95
BJhTERT cells; [16]
  cell viability, cytotoxicity curve (Figure3H): 93.48
BJhTERT cells; [17]
  cell viability, cytotoxicity curve (Figure3H): 99.27
BJhTERT cells; [18]
  cell viability, cytotoxicity curve (Figure3H): 112.5
BJhTERT cells; [19]
  cell viability, cytotoxicity curve (Figure3H): 95.56
BJhTERT cells; [20]
  cell viability, cytotoxicity curve (Figure3H): 91.5
BJhTERT cells; [21]
  cell viability, cytotoxicity curve (Figure3H): 96.04
BJhTERT cells; [22]
  cell viability, cytotoxicity curve (Figure3H): 108.1
BJhTERT cells; [23]
  cell viability, cytotoxicity curve (Figure3H): 71.45
BJhTERT cells; BJhTERT, Log conc. (M) 0.0001
  cell viability, cytotoxicity curve (Figure3H): 40.28
BJhTERT cells; non-transformed cells (BJhTERT), 72 h, read-out: EC50 (loss of viability)
  EC50: > 70 µM
[2]; 100 μM, two independent experiments, read-out: percentage cell viability
  viability at 72 h, 100 µM: 38.2%
[2]; [25]
  viability at 72 h, 5.12861e-09 M: 94.3%
  viability at 72 h, 1.51356e-08 M: 81.4%
  viability at 72 h, 4.57088e-08 M: 92%
  viability at 72 h, 1.38038e-07 M: 101%
  viability at 72 h, 4.0738e-07 M: 79.8%
  viability at 72 h, 1.23027e-06 M: 87.1%
  viability at 72 h, 3.31131e-05 M: 71%
  viability at 72 h, 0.0001 M: 38.2%
[2]; Log conc. (M) 3.71535e-6, read-out: cell viability, cytotoxicity curve (Figure3H)
  viability at 72 h, 3.71535e-06 M: 84%
[2]; Log conc. (M) 1.12202e-5, read-out: cell viability, cytotoxicity curve (Figure3H)
  viability at 72 h, 1.12202e-05 M: 89.3%
HCT116 cells; HCT116, 100 μM, 100 µM
  percentage cell viability: 20.29%
HCT116 cells; Homo sapiens, HCT-116, HCT116, 100 μM, read-out: percentage cell viability
  viability at 100 µM: 20%
